Results on 6 molecules are retold here after patent US20100168079A1 (priority 2008, published 2010).

SMILES strings stand for the structures.

In one assay the target is T1, human S1P1 receptors (Homo sapiens, UniProt P21453).
T1 construct: myc (N); expressed in transfected cells; host or cells: HeLa (human cervix carcinoma, ATCC CCL2), HeLa-S1P1/Gα16 cell clone 1
The assay can be described thus: Human S1P1 Receptor Calcium FLIPR Antagonist Assay (HeLa Gα16 S1P1). The class given is cell-based. Conditions: relative antagonism of Ca2+ signal evoked by probing agonist GNF-AC-1 at EC80; HeLa-S1P1/Gα16 cells. A digest of the protocol:
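HeLa Gα16 cells expressing S1P1 loaded for calcium fluorescence on FLIPR; compounds added in HBSS with 0.1% BSA, then agonist at EC80 20-30 min later. IC50 from (Fmax-Fmin)/Fmin versus log compound concentration.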

In a further assay the test system is circulating lymphocytes. The assay can be described thus: Measurement of Circulating Lymphocytes. The class given is in vivo, Rats (Lewis strain, male). Conditions: Rattus norvegicus, Lymphocyte; male Lewis rats, 14 hours after oral 30 mg/kg, compared to vehicle-only group; mean±SEM; read-out: Residual Lymphocyte Counts 14 hours after 30 mg/kg p.o. dosing. The procedure: The compounds of formula (I) typically induce the depletion of blood lymphocyte as may be determined in the assay described below. Moreover, compounds of formula (I) are typically efficacious in the said assay also when administered via the per oral route of administration.
Measurement of Circulating Lymphocytes:
The test compounds (or salts thereof) are dissolved in a vehicle such as water, saline, PEG (polyethylene glycol) 200, or PBS (phosphate buffered saline). Rats (Lewis strain, male, 6-12 weeks old) are administered up to 100 mg/kg of the test compounds in 2 ml/kg vehicle via per oral or subcutaneous application. The vehicle or a reference salt and FTY720 (0.3 mg/kg) are included as negative and positive controls, respectively.
Blood is collected from the sublingual vein before and 2, 8 and 24 hours or 14, 18 and 24 hours after the test compound administration under short isoflurane anesthesia. Whole blood samples are subjected to hematology analysis. Peripheral lymphocyte counts are determined using an automated analyzer. The Haemathology System uses a combination of light scatter, cytochemical staining and nuclear density on two independent channels to measure the total and differential white cell counts. Two to four rats are used to assess the lymphocyte depletion activity of each compound screened. The data are presented as mean±SEM.

T1 sequence (P21453 whole entry): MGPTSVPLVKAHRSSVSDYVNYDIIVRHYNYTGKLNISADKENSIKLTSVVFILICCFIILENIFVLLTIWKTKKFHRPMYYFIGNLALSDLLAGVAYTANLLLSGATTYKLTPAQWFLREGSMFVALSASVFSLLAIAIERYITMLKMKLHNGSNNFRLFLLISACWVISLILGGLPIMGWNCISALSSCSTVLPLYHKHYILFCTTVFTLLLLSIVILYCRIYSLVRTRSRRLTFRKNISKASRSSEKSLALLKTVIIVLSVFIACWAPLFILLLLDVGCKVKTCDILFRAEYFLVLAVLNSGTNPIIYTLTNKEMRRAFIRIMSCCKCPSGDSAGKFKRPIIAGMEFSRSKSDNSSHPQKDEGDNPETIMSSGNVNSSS

Take `Cc1cc([C@H](Nc2cccc(-c3cc(C)c(C(=O)N[C@@H](C)C(=O)O)c(C)c3)c2)C(F)(F)F)ccc1Cl` [Example 106, (S)-2-({3′-[(S)-1-(4-Chloro-3-methyl-phenyl)-2,2,2-trifluoro-ethylamino]-3,5-dimethyl-biphenyl-4-carbonyl}-amino)-propionic acid]: the IC50 (usually the midpoint of a concentration-inhibition curve) at human S1P1 receptors came out at 2 nM. Besides, the response vs control in vivo at 30 mg/kg with circulating lymphocytes is 10.9%.

As for `CC[C@H](c1ccc(Cl)c(C)c1)N(C)c1cccc(-c2cc(C)c(C(=O)NC3(C(=O)O)CC3)c(C)c2)c1` [Example 108, 1-[(3′-{[(R)-1-(4-Chloro-3-methyl-phenyl)-propyl]-methyl-amino}-3,5-dimethyl-biphenyl-4-carbonyl)-amino]-cyclopropanecarboxylic acid], at human S1P1 receptors, the IC50 is 8 nM. Moreover, the response vs control in vivo at 30 mg/kg in the assay with circulating lymphocytes stood at 19.6%.

Take `CC[C@@H](Nc1cccc(-c2cc(C)c(C(=O)NC3(C(=O)O)CC3)c(C)c2)c1)c1ccc(Cl)c(C)c1` [Example 109, 1-({3′-[(R)-1-(4-Chloro-3-methyl-phenyl)-propylamino]-3,5-dimethyl-biphenyl-4-carbonyl}-amino)-cyclopropanecarboxylic]: the IC50 at human S1P1 receptors turned out to be 2 nM. Further, the response vs control in vivo at 30 mg/kg in the assay with circulating lymphocytes amounted to 19.1%.

Regarding `Cc1cc([C@H](Nc2cccc(-c3cc(C)c(C(=O)NC4(C(=O)O)CC4)c(C)c3)c2)C(F)(F)F)ccc1Cl` [Example 112, 1-({3′-[(S)-1-(4-Chloro-3-methyl-phenyl)-2,2,2-trifluoro-ethylamino]-3,5-dimethyl-biphenyl-4-carbonyl}-amino)-cyclopropanecarboxylic acid], the IC50 at human S1P1 receptors was 2 nM. The response vs control in vivo at 30 mg/kg in the assay with circulating lymphocytes is 18.3%.

In the case of `CC[C@@H](Nc1ccc(F)c(-c2cc(C)c(C(=O)NC3(C(=O)O)CC3)c(C)c2)c1)c1ccc(Cl)c(C)c1` [Example 115, 1-({5′-[(R)-1-(4-Chloro-3-methyl-phenyl)-propylamino]-2′-fluoro-3,5-dimethyl-biphenyl-4-carbonyl}-amino)-cyclopropanecarboxylic acid], the IC50 at human S1P1 receptors was found to be 2 nM. Moreover, in the assay on circulating lymphocytes, the response vs control in vivo at 30 mg/kg amounted to 15.8%.

As for `CC[C@@H](Nc1ccc(F)c(-c2cc(C)c(C(=O)N(C)[C@@H](C)C(=O)O)c(C)c2)c1)c1ccc(Cl)c(C)c1` [Example 117, (S)-2-({5′-[(R)-1-(4-Chloro-3-methyl-phenyl)-propylamino]-2′-fluoro-3,5-dimethyl-biphenyl-4-carbonyl}-methyl-amino)-propionic acid], the IC50 on human S1P1 receptors was 2 nM. The response vs control in vivo at 30 mg/kg with circulating lymphocytes amounted to 15%.
